Data taken from patent US4882432A, “Polycyclic-carbamic acid piperazinoalkyl esters and amides” (American Home Products Corporation, priority 1989, dated 1989).

Legend:
[1] = molecular target: T1, 5-HT1A serotonin receptor subtype (Rattus norvegicus, UniProt P19327); experiment: displacement of ^3 H-8-OH DPAT from the 5-HT1A serotonin receptor subtype (Hall et al.); type: binding; conditions: for inhibition at 1 µM: 1 μM test compound, read-out: % Inhibition at 1 μM (Affinity for 5-HT1A Receptor Sites); for Ki: calculated from IC50 values, read-out: Ki (Affinity for 5-HT1A Receptor Sites)
T1 construct: from tissue
T1 sequence (P19327 1-422): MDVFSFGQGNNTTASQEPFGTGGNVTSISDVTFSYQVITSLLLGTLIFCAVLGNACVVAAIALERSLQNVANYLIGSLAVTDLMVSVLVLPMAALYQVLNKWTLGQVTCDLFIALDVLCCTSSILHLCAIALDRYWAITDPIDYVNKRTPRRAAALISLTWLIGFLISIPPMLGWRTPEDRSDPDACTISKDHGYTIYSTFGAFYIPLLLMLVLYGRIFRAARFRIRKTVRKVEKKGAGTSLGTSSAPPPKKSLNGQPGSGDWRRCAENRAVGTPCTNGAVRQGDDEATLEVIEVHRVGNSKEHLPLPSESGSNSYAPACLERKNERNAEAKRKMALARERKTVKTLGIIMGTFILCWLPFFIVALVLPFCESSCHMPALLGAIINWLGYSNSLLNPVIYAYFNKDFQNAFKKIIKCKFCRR
From the text: The serotoninergic properties of the compounds of this invention were established by the procedure of Hall et al., J. Neurochem.

[2] = molecular target: T2, limbic D2 (dopamine) receptor (Rattus norvegicus, UniProt P61169); experiment: inhibition of ^3 H-spiroperidol binding to limbic brain tissue (D2 receptor affinity); conditions: 1 μM test compound, read-out: % Inhibition at 1 μM (Affinity for D2 Receptor Sites)
T2 construct: from tissue
Procedure: The compounds of this invention are antidepressant, anxiolytic agents useful in the treatment of depression and/or anxiety as a singular, primary mental problem as well as secondary, attending problems such as sexual dysfunction. […] The D2 receptor affinity of the compounds of this invention was determined by a modification of the test procedure of Fields et al., Brain Res. 136, 578 (1977) and Yamamura et al., eds., Neurotransmitter Receptor Binding, Raven Press, N.Y. (1978) as discussed in U.S. Pat. No. 4,636,563. The percentage reduction of ^3 H-spiroperidol binding at 1 μM concentration of test compound is reported, infra.

[3] = literature; cited from earlier work

T2 sequence (P61169 whole entry): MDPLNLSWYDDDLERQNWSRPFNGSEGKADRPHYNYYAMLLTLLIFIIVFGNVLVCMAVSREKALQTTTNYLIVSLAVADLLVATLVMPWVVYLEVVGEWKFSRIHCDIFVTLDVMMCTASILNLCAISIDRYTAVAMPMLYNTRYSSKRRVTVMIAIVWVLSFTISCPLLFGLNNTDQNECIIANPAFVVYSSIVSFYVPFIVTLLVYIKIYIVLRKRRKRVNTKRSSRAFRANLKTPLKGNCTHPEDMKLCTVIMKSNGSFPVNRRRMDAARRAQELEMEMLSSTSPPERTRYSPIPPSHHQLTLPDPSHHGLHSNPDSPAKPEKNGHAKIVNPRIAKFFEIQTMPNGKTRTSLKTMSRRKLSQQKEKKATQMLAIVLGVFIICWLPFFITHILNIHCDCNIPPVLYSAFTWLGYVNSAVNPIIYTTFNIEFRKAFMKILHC

| SMILES | inhibition at 1 µM [1] | inhibition at 1 µM [2] | Ki [1] | clinical efficacy as anxiolytic-antidepressant agents (in words) [3] | inhibition at 0.1 µM ([1]; 100 nM test compound, read-out: % Inhibition at 100 nM (Affinity for 5-HT1A Receptor Sites)) |
| --- | --- | --- | --- | --- | --- |
| COc1ccccc1N1CCN(CCNC(=O)NC23CC4CC(CC(C4)C2)C3)CC1 [Example 2] | 100% | – | – | – | – |
| COc1ccccc1N1CCN(CCCNC(=O)NC23CC4CC(CC(C4)C2)C3)CC1 [Example 5, N-[3-[4-(2-methoxyphenyl)-1-piperazinyl]propyl]-N'-tricyclo[3.3.1.1(3,7)]dec-1-ylurea] | 100% | 66% | – | – | – |
| O=C(NCCN1CCN(c2ncccn2)CC1)NC12CC3CC(CC(C3)C1)C2 [Example 1, N-[2-[4-(2-pyrimidyl)-1-piperazinyl]ethyl]-N'-tricyclo[3.3.1.1(3,7)]dec-1-ylurea] | 91% | 15% | 52 nM | – | – |
| O=C(NCCCN1CCN(c2cccc(Cl)c2)CC1)NC12CC3CC(CC(C3)C1)C2 [Example 6, N-[3-[4-(3-chlorophenyl)-1-piperazinyl]propyl]-N'-tricyclo[3.3.1.1(3,7)]dec-1-ylurea] | 95% | 38% | 45 nM | – | – |
| Cc1nc2sccn2c(=O)c1CCN1CCC(=C(c2ccc(F)cc2)c2ccc(F)cc2)CC1 [Ritanserin] | – | – | – | demonstrate clinical efficacy as anxiolytic-antidepressant agents | – |
| O=C(NCCCN1CCN(c2ncccn2)CC1)NC12CC3CC(CC(C3)C1)C2 [Example 4, N-[3[4-(2-pyrimidyl)-1-piperazinyl]propyl]-N'-tricyclo[3.3.1.1(3,7)]dec-1-ylurea] | 100% | 10% | 7 nM | – | – |
| O=C(NCCN1CCN(c2cccc(Cl)c2)CC1)NC12CC3CC(CC(C3)C1)C2 [Example 3, N-[2-[4-(3-chlorophenyl)-1-piperazinyl]ethyl]-N'-tricyclo[3.3.1.1(3,7)]dec-1-ylurea] | – | 56% | – | – | 54% |
